Target: T1, human H1 receptor (Homo sapiens, UniProt P35367)
T1 construct: expressed in transfected cells; host or cells: CHO cells (crude membranes)
Assay: Human histamine H1 receptor binding assay
Details: competition with 1.5 nM [pyridinyl-5-3H] Pyrilamine, crude membranes of CHO cells transfected with human H1 receptor; Ki from IC50 by Cheng-Prusoff
Description: Compounds of the present invention may be evaluated for binding to the histamine H1 receptor by a standard binding assay. […] Pyrilamine (˜30 Ci/mmol, Amersham TRK608) in the presence of varying concentrations of competing ligand. Non-specific binding is determined in the presence of excess (1 μM) doxepin. Bound and free ligand are separated by rapid vacuum filtration using a Packard 96-well cell harvester onto UniFilter GF/C filter plates (PerkinElmer) that has been pretreated with 1% polyethyleneimine. The filter plates are then washed with 600 μl phosphate buffered saline containing 0.01% (v/v) Triton-X100. Bound radioligand is determined by scintillation counting using a TopCount-NXT (Packard). Binding data is analyzed by nonlinear, least-squares curve fitting algorithms using GraphPad Prism (GraphPad Software, Inc. San Diego, Calif.) or ActivityBase (IDBS, Guildford, Surrey, UK).

T1 sequence (P35367 whole entry): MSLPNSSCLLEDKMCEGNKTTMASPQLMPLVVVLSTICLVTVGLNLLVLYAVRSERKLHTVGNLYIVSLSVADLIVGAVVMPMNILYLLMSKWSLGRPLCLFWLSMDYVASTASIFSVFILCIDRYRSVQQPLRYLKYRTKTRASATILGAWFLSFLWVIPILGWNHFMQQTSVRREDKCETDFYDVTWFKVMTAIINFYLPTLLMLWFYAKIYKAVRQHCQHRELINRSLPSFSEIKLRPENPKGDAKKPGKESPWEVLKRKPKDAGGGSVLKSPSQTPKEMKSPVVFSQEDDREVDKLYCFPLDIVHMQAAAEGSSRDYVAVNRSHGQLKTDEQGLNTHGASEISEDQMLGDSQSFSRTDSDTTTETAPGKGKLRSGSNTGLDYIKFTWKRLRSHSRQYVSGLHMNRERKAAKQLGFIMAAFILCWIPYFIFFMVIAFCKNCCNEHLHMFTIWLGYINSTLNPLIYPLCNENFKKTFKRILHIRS

| Ki [µM] | SMILES |
| --- | --- |
| ≤ 1 | CC(c1cscn1)c1c(CCN(C)C)sc2ccccc12 (stereo in doubt) [Compound 16-4, Dimethyl-{2-[3-((R)-1-thiazol-4-yl-ethyl)-benzo[b]thiophen-2-yl]-ethyl}-amine] |
| ≤ 1 | CN(C)CCc1sc2ccccc2c1Cc1ccc(F)cc1 [Compound 3-2, {2-[3-(4-Fluoro-benzyl)-benzo[b]thiophen-2-yl]-ethyl}-dimethyl-amine] |
| ≤ 1 | CN(C)CCc1sc2ccccc2c1C(C)(O)c1ccc(F)cc1 (stereo not shown) [Compound 3-3, 1-[2-(2-Dimethylamino-ethyl)-benzo[b]thiophen-3-yl]-1-(4-fluoro-phenyl)-ethanol] |
| ≤ 1 | CC(c1ccc(F)cc1)c1c(CCN(C)C)sc2ccccc12 (stereo not shown) [Compound 3-4, (2-{3-[1-(4-Fluoro-phenyl)-ethyl]-benzo[b]thiophen-2-yl}-ethyl)-dimethyl-amine] |
| ≤ 1 | Cc1ccc2c(C(C)c3ccccn3)c(CCN(C)C)sc2c1 (stereo not shown) [Compound 4-2, Dimethyl-{2-[6-methyl-3-(1-pyridin-2-yl-ethyl)-benzo[b]thiophen-2-yl]-ethyl}-amine] |
| ≤ 1 | Cc1ccc2c([C@@H](C)c3ccccn3)c(CCN(C)C)sc2c1 [Compound 4-3, Dimethyl-{2-[6-methyl-3-((R)-1-pyridin-2-yl-ethyl)-benzo[b]thiophen-2-yl]-ethyl}-amine] |
| ≤ 1 | C=C(c1ccccn1)c1c(CCN(C)C)sc2cc(C)ccc12 [Compound 4-6, Dimethyl-{2-[6-methyl-3-(1-pyridin-2-yl-vinyl)-benzo[b]thiophen-2-yl]-ethyl}-amine] |
| ≤ 1 | Cc1ccnc(C(C)c2c(CCN(C)C)sc3ccccc23)c1 (stereo not shown) [Compound 5-3, Dimethyl-(2-{3-[1-(4-methyl-pyridin-2-yl)-ethyl]-benzo[b]thiophen-2-yl}-ethyl)-amine] |
| ≤ 1 | CN(C)CCc1sc2ccccc2c1C(C)(O)c1ccccn1 (stereo not shown) [Compound 6-1, 1-[2-(2-Dimethylamino-ethyl)-benzo[b]thiophen-3-yl]-1-pyridin-2-yl-ethanol] |
| ≤ 1 | C=C(c1ccccn1)c1c(CCN(C)C)sc2ccccc12 [Compound 6-2, Dimethyl-{2-[3-(1-pyridin-2-yl-vinyl)-benzo[b]thiophen-2-yl]-ethyl}-amine] |
| ≤ 1 | CC(c1ccccn1)c1c(CCN(C)C)sc2ccccc12 (stereo not shown) [Compound 6-3, Dimethyl-{2-[3-(1-pyridin-2-yl-ethyl)-benzo[b]thiophen-2-yl]-ethyl}-amine] |
| ≤ 1 | C=C(c1cccnc1)c1c(CCN(C)C)sc2ccccc12 [Compound 6-4, Dimethyl-{2-[3-(1-pyridin-3-yl-vinyl)-benzo[b]thiophen-2-yl]-ethyl}-amine] |
| ≤ 1 | C=C(c1ccncc1)c1c(CCN(C)C)sc2ccccc12 [Compound 6-5, Dimethyl-{2-[3-(1-pyridin-4-yl-vinyl)-benzo[b]thiophen-2-yl]-ethyl}-amine] |
| ≤ 1 | CC(c1ccncc1)c1c(CCN(C)C)sc2ccccc12 (stereo not shown) [Compound 6-7, Dimethyl-{2-[3-(1-pyridin-4-yl-ethyl)-benzo[b]thiophen-2-yl]-ethyl}-amine] |
| ≤ 1 | COc1cccnc1C(C)c1c(CCN(C)C)sc2ccccc12 (stereo not shown) [Compound 6-10, Dimethyl-(2-{3-[1-(3-methoxy-pyridin-2-yl)-ethyl]-benzo[b]thiophen-2-yl}-ethyl)-amine] |
| ≤ 1 | CC(c1ccc(F)cn1)c1c(CCN(C)C)sc2ccccc12 (stereo not shown) [Compound 7-3, (2-{3-[1-(5-Fluoro-pyridin-2-yl)-ethyl]-benzo[b]thiophen-2-yl}-ethyl)-dimethyl-amine] |
| ≤ 1 | C[C@@H](c1ccc(F)cn1)c1c(CCN(C)C)sc2ccccc12 [Compound 7-4, (2-{3-[(R)-1-(5-Fluoro-pyridin-2-yl)-ethyl]-benzo[b]thiophen-2-yl}-ethyl)-dimethyl-amine] |
| ≤ 1 | C[C@H](c1ccc(F)cn1)c1c(CCN(C)C)sc2ccccc12 [Compound 7-5, (2-{3-[(S)-1-(5-Fluoro-pyridin-2-yl)-ethyl]-benzo[b]thiophen-2-yl}-ethyl)-dimethyl-amine] |
| ≤ 1 | CC(c1nccs1)c1c(CCN(C)C)sc2ccccc12 (stereo not shown) [Compound 8-3, Dimethyl-{2-[3-(1-thiazol-2-yl-ethyl)-benzo[b]thiophen-2-yl]-ethyl}-amine] |
| ≤ 1 | CNCCc1sc2ccccc2c1C(C)c1ccccn1 (stereo not shown) [Compound 9-1, Methyl-{2-[3-(1-pyridin-2-yl-ethyl)-benzo[b]thiophen-2-yl]-ethyl}-amine] |
| ≤ 1 | CCCN(C)CCc1sc2ccccc2c1C(C)c1ccccn1 (stereo not shown) [Compound 9-2, Methyl-propyl-{2-[3-(1-pyridin-2-yl-ethyl)-benzo[b]thiophen-2-yl]-ethyl}-amine] |
| ≤ 1 | Cc1ccc(C(C)c2c(CCN(C)C)sc3ccccc23)cn1 (stereo not shown) [Compound 10-3, Dimethyl-(2-{3-[1-(6-methyl-pyridin-3-yl)-ethyl]-benzo[b]thiophen-2-yl}-ethyl)-amine] |

| Ki [µM] | SMILES |
| --- | --- |
| ≤ 1 | CC(c1cnccn1)c1c(CCN(C)C)sc2ccccc12 (stereo not shown) [Compound 11-2, Dimethyl-{2-[3-(1-pyrazin-2-yl-ethyl)-benzo[b]thiophen-2-yl]-ethyl}-amine] |
| ≤ 1 | C[C@H](c1ccccn1)c1c(CCN(C)C)sc2ccccc12 [Compound 12-1, Dimethyl-{2-[3-((S)-1-pyridin-2-yl-ethyl)-benzo[b]thiophen-2-yl]-ethyl}-amine] |
| ≤ 1 | C[C@@H](c1ccccn1)c1c(CCN(C)C)sc2ccccc12 [Compound 12-2, Dimethyl-{2-[3-((R)-1-pyridin-2-yl-ethyl)-benzo[b]thiophen-2-yl]-ethyl}-amine] |
| ≤ 1 | CN(C)CCc1sc2ccccc2c1Cc1ccccn1 [Compound 13-3, Dimethyl-[2-(3-pyridin-2-ylmethyl-benzo[b]thiophen-2-yl)-ethyl]-amine] |
| ≤ 1 | CN(C)CCc1sc2ccccc2c1Cc1cncnc1 [Compound 13-4, Dimethyl-[2-(3-pyrimidin-5-ylmethyl-benzo[b]thiophen-2-yl)-ethyl]-amine] |
| ≤ 1 | CN(C)CCc1sc2ccccc2c1Cc1nccs1 [Compound 13-5, Dimethyl-[2-(3-thiazol-2-ylmethyl-benzo[b]thiophen-2-yl)-ethyl]-amine] |
| ≤ 1 | CN(C)CCc1sc2ccccc2c1Cc1cscn1 [Compound 13-6, Dimethyl-[2-(3-thiazol-4-ylmethyl-benzo[b]thiophen-2-yl)-ethyl]-amine] |
| ≤ 1 | COc1cccnc1Cc1c(CCN(C)C)sc2ccccc12 [Compound 13-7, {2-[3-(3-Methoxy-pyridin-2-ylmethyl)-benzo[b]thiophen-2-yl]-ethyl}-dimethyl-amine] |
| ≤ 1 | CN(C)CCc1sc2ccccc2c1Cc1cccc(O)n1 [Compound 13-8, 6-[2-(2-Dimethylamino-ethyl)-benzo[b]thiophen-3-ylmethyl]-pyridin-2-ol] |
| ≤ 1 | CN(C)CCc1sc2ccccc2c1Cc1cnccn1 [Compound 13-9, Dimethyl-[2-(3-pyrazin-2-ylmethyl-benzo[b]thiophen-2-yl)-ethyl]-amine] |
| ≤ 1 | CN(C)CCc1sc2ccccc2c1Cc1cncn1C [Compound 13-11, Dimethyl-{2-[3-(3-methyl-3H-imidazol-4-ylmethyl)-benzo[b]thiophen-2-yl]-ethyl}-amine] |
| ≤ 1 | CN(C)CCc1sc2ccccc2c1Cc1cnns1 [Compound 13-12, Dimethyl-[2-(3-[1,2,3]thiadiazol-5-ylmethyl-benzo[b]thiophen-2-yl)-ethyl]-amine] |
| ≤ 1 | Cc1cc(Cc2c(CCN(C)C)sc3ccccc23)n(C)n1 [Compound 13-13, {2-[3-(2,5-Dimethyl-2H-pyrazol-3-ylmethyl)-benzo[b]thiophen-2-yl]-ethyl}-dimethyl-amine] |
| ≤ 1 | CN(C)CCc1sc2ccccc2c1Cc1nn(C)cc1Cl [Compound 13-14, {2-[3-(4-Chloro-1-methyl-1H-pyrazol-3-ylmethyl)-benzo[b]thiophen-2-yl]-ethyl}-dimethyl-amine] |
| ≤ 1 | CN(C)CCc1sc2ccccc2c1Cc1nccn1C [Compound 13-15, Dimethyl-{2-[3-(1-methyl-1H-imidazol-2-ylmethyl)-benzo[b]thiophen-2-yl]-ethyl}-amine] |
| ≤ 1 | COc1cccc(C(C)c2c(CCN(C)C)sc3ccccc23)n1 (stereo not shown) [Compound 15-2, (2-{3-[1-(6-Methoxy-pyridin-2-yl)-ethyl]-benzo[b]thiophen-2-yl}-ethyl)-dimethyl-amine] |
| ≤ 1 | CC(c1cccc(F)n1)c1c(CCN(C)C)sc2ccccc12 (stereo not shown) [Compound 15-3] |
| ≤ 1 | COc1ncccc1C(C)c1c(CCN(C)C)sc2ccccc12 (stereo not shown) [Compound 15-4, Dimethyl-(2-{3-[1-(2-methoxy-pyridin-3-yl)-ethyl]-benzo[b]thiophen-2-yl}-ethyl)-amine] |
| ≤ 1 | COc1ncccc1[C@@H](C)c1c(CCN(C)C)sc2ccccc12 [Compound 15-5, Dimethyl-(2-{3-[(R)-1-(2-methoxy-pyridin-3-yl)-ethyl]-benzo[b]thiophen-2-yl}-ethyl)-amine] |
| ≤ 1 | COc1ncccc1[C@H](C)c1c(CCN(C)C)sc2ccccc12 [Compound 15-6, Dimethyl-(2-{3-[(S)-1-(2-methoxy-pyridin-3-yl)-ethyl]-benzo[b]thiophen-2-yl}-ethyl)-amine] |
| ≤ 1 | CC(c1cccnc1F)c1c(CCN(C)C)sc2ccccc12 (stereo not shown) [Compound 15-7, Dimethyl-(2-{3-[1-(2-fluoro-pyridin-3-yl)-ethyl]-benzo[b]thiophen-2-yl}-ethyl)-amine] |

Reference: US7393865B2, “Sleep inducing compounds and methods relating thereto” (Neurocrine Biosciences, Inc., priority 2004, dated 2008)
